Results as given in ChEMBL document CHEMBL1133372, “Mechanistic studies on type I and type II dehydroquinase with (6R)- and (6S)-6-fluoro-3-dehydroquinic acids” (Bioorg Med Chem Lett, 2000).

Legend:
[1] = tested on: Mycobacterium tuberculosis; experiment: The compound was evaluated for its kinetic parameter (Km) against type 2 Dehydroquinase of Mycobacterium tuberculosis
[2] = tested on: Aspergillus nidulans; experiment: The compound was evaluated for its kinetic parameter (Km) against type 2 Dehydroquinase of Aspergillus nidulans
[3] = tested on: Aspergillus nidulans; experiment: Kcat value was evaluated against type 2 Dehydroquinase of Aspergillus nidulans
[4] = tested on: Mycobacterium tuberculosis; experiment: Kcat value was evaluated against type 2 Dehydroquinase of Mycobacterium tuberculosis
[5] = target: T1, 3-dehydroquinate dehydratase (Escherichia coli K-12) (UniProt P05194); experiment: Kcat value was evaluated against type 1 Dehydroquinase of Escherichia coli
T1 sequence (whole entry): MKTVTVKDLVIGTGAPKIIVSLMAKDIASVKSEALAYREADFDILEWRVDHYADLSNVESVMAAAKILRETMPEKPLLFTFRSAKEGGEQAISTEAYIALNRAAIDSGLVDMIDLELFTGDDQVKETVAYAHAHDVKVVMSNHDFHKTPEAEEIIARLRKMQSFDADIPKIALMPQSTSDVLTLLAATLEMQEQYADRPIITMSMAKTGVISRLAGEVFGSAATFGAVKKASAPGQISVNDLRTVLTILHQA

[6] = target: T1, 3-dehydroquinate dehydratase (Escherichia coli K-12); experiment: Kcat / Km value was evaluated against type 1 Dehydroquinase of Escherichia coli

Row | SMILES | Km [1] [µM] | Km [2] [µM] | k cat [3] [s⁻¹] | k cat [4] [s⁻¹] | k cat [5] [s⁻¹] | k cat/Km [6] [M⁻¹ s⁻¹]
1 | O=C1CC(O)(C(=O)O)CC(O)C1O (stereo unspecified) | 13 | 122 | 313 | 2.6 | – | –
2 | O=C1CC(O)(C(=O)O)C(F)C(O)C1O (stereo in doubt; 2) | 3.6 | 39 | 4.6 | 0.14 | 3 | 310000
3 | O=C1CC(O)(C(=O)O)C(F)C(O)C1O (stereo in doubt; 3) | 7.9 | 50 | 46 | 1.1 | 36 | 310000
